Assay results from patent US20230096766A1, “AMINO ACID HAVING FUNCTIONAL GROUP CAPABLE OF INTERMOLECULAR HYDROGEN BONDING, PEPTIDE COMPOUND CONTAINING SAME AND METHOD FOR PRODUCTION THEREOF” (Chugai Seiyaku Kabushiki Kaisha, priority 2018, published 2023).
*1 amine or outer side, *2 acyl side, *3 side chain or, on linkers, in order; H or OH if unused. Where a SMILES comes first, the peptide text is derived from it. Bridges are numbered along the chain shown (N, C = ends). [ ]: non-standard residue; d: D form. The star is where a group is joined. ξ: configuration not given here. X19 = CC(C)C[C@H](NN(C)[C@H](Cc1ccccc1)N(C)[*:1])C(=O)[*:2]; Phe(3-OMe,4-CONHMe) = CNC(=O)c1ccc(C[C@H](N)C(=O)O)cc1OC; NMePhe(3-Cl) = CN[C@@H](Cc1cccc(Cl)c1)C(=O)O; NMeW = CN[C@@H](Cc1c[nH]c2ccccc12)C(=O)O; X16 = CC(C)C(C)[C@H](N[*:1])C(=O)[*:2]; NMehPhe = CN[C@@H](CCc1ccccc1)C(=O)O; X9 = O=C([C@@H](CN[*:1])COCCO)[*:2]; Propyl(2,2-Me2,3-OH) = CC(C)(CO)C*; X6 = O=C([C@H](CCCCO)N[*:1])[*:2]; Hyp = O=C(O)[C@@H]1C[C@@H](O)CN1; NMeF = CN[C@@H](Cc1ccccc1)C(=O)O; NMeGABA = CN(CCCC(=O)[*:2])[*:1]; NMeI = CC[C@H](C)[C@H](NC)C(=O)O; NMeL = CN[C@@H](CC(C)C)C(=O)O; dNMeL = CN[C@H](CC(C)C)C(=O)O; Butyl(3R-OH) = C[C@@H](O)CC*; Propyl(2R-OH) = C[C@@H](O)C*; NMeV = CN[C@H](C(=O)O)C(C)C; NMeA = CN[C@@H](C)C(=O)O; Piperidide = C1CCN(*)CC1; CH2CONHMe = CNC(=O)C*; NBuGly = CCCCNCC(=O)O; Isopentyl = CC(C)CC*; NPrGly = CCCNCC(=O)O; Propyl(3-OH) = OCCC*; ξV = CC(C)C(N)C(=O)O; Ethyl(2-OH) = OCC*; Sar = CNCC(=O)O; tBu = CC(C)(C)*

Assay: in vitro
Details: human
[1] = Caco-2, Caco-2 (membrane permeability)

Structure (SMILES) | Papp (Caco-2, Caco-2 (cm/sec)) | also measured
CC(C)C[C@H]1C(=O)NC(C(C)C)C(=O)N(C)[C@@H](Cc2ccccc2)C(=O)N(C)[C@@H](Cc2cccc(Cl)c2)C(=O)N[C@@H](COCC[C@@H](C)O)C(=O)N(C)[C@@H](CC(C)C)C(=O)N[C@@H]([C@@H](C)O)C(=O)N(C)[C@@H](CC(C)C)C(=O)N(C)[C@@H](CC(C)C)C(=O)N[C@H](C(=O)N2CCCCC2)CC(=O)N(C)CCCC(=O)N1C (stereo partly drawn) [AP111] ([NMeGABA][NMeL][ξV][NMeF][NMePhe(3-Cl)]S(Butyl(3R-OH))[NMeL]T[NMeL][NMeL]D-Piperidide; lactam N-11) | 0.13 ×10⁻⁶ cm/s | 
CC(C)C[C@@H]1NC(=O)[C@H](CCc2ccccc2)N(C)C(=O)[C@H](CCc2ccccc2)N(C)C(=O)[C@H](CCCCO)NC(=O)[C@H](C(C)C)N(C)C(=O)CCCN(C)C(=O)C[C@@H](C(=O)N2CCCCC2)NC(=O)[C@H](CC(C)C)N(C)C(=O)[C@H](CC(C)C)N(C)C(=O)[C@H]([C@@H](C)O)NC(=O)[C@H](CC(C)C)N(C)C1=O [Compound B03] ([NMeGABA][NMeV][X6][NMehPhe][NMehPhe]L[NMeL]T[NMeL][NMeL]D-Piperidide; lactam N-11) | 0.27 ×10⁻⁶ cm/s | 
CC(C)C[C@@H]1NN(C)[C@H](Cc2ccccc2)N(C)C(=O)[C@@H](C(C)C)NC(=O)C[C@@H](C(=O)N2CCCCC2)NC(=O)[C@H](CC(C)C)N(C)C(=O)[C@H](CC(C)C)N(C)C(=O)[C@H](Cc2ccc(O)cc2)NC(=O)[C@H](CC(C)C)N(C)C(=O)CN(C)C(=O)[C@H]([C@@H](C)O)NC(=O)[C@H](CC(C)C)N(C)C1=O [Compound F01] ([dV][X19][NMeL]T[Sar][NMeL]Y[NMeL][NMeL]D-Piperidide; lactam N-10) | 0.32 ×10⁻⁶ cm/s | 
CC(C)C[C@@H]1NC(=O)[C@H](Cc2ccccc2)N(C)C(=O)[C@@H](C(C)C)NC(=O)C[C@@H](C(=O)N2CCCCC2)NC(=O)[C@H](C)N(C)C(=O)[C@H](CC(C)C)N(C)C(=O)[C@H](COC(C)(C)C)NC(=O)[C@H](CC(C)C)N(C)C(=O)CN(C)C(=O)[C@H](Cc2ccc(O)cc2)NC(=O)[C@H](CC(C)C)N(C)C1=O [pd127] ([dV][NMeF]L[NMeL]Y[Sar][NMeL]S(tBu)[NMeL][NMeA]D-Piperidide; lactam N-11) | 0.13 ×10⁻⁶ cm/s | 
CC[C@H](C)[C@H]1C(=O)N[C@@H]([C@@H](C)O)C(=O)N(C)CC(=O)N(C)[C@@H](CC(C)C)C(=O)N[C@H](C(=O)N2CCCCC2)CC(=O)N(C)[C@@H](CC(C)C)C(=O)N[C@@H](CC(C)C)C(=O)N(C)[C@@H](CC(C)C)C(=O)N(C)[C@@H](Cc2c[nH]c3ccccc23)C(=O)N[C@@H](CC(C)C)C(=O)N(C)[C@@H](Cc2ccccc2)C(=O)N1C [pd111] ([NMeL]L[NMeL][NMeW]L[NMeF][NMeI]T[Sar][NMeL]D-Piperidide; lactam N-11) | 0.16 ×10⁻⁶ cm/s | 
CCCCN1CC(=O)N(C)[C@@H](CC(C)C)C(=O)N[C@@H](COCC(=O)NC)C(=O)N(C)[C@@H](CCc2ccccc2)C(=O)N(C)[C@@H](CC(C)C)C(=O)N[C@H](C(=O)N2CCCCC2)CC(=O)N[C@H](CC(C)C)C(=O)N(C)[C@@H](CC(C)C)C(=O)N[C@@H](Cc2ccccc2)C(=O)N(C)[C@@H](CC(C)C)C(=O)N[C@@H]([C@@H](C)O)C1=O [Compound I02] ([dL][NMeL]F[NMeL]T[NBuGly][NMeL]S(CH2CONHMe)[NMehPhe][NMeL]D-Piperidide; lactam N-11) |  | Papp [1]: 0.052 ×10⁻⁶ cm/s
CC[C@H](C)[C@@H]1NC(=O)[C@H](CC(C)C)N(C)C(=O)[C@@H]2C[C@@H](OCCO)CN2C(=O)[C@H]([C@@H](C)O)NC(=O)[C@H](CC(C)C)N(C)C(=O)[C@H](CC(C)C)NC(=O)[C@H](C(C)C(C)C)NC(=O)[C@@H](CC(C)C)N(C)C(=O)C[C@@H](C(=O)N2CCCCC2)NC(=O)[C@H](CC(C)C)NC(=O)[C@H](CC(C)C)N(C)C1=O (stereo partly drawn) [AP233] ([dNMeL][X16]L[NMeL]T[Hyp](Ethyl(2-OH))[NMeL]I[NMeL]LD-Piperidide; lactam N-11) | 3 ×10⁻⁶ cm/s | 
CCCCN1CC(=O)N(C)[C@@H](Cc2ccccc2)C(=O)N(C)[C@@H](CC(C)C)C(=O)N[C@@H](COCC(C)(C)CO)C(=O)N(C)[C@@H](CC(C)C)C(=O)N[C@H](C(=O)N2CCCCC2)CC(=O)N(C)CC(=O)N(C)[C@@H](Cc2ccccc2)C(=O)N[C@@H](C(C)C)C(=O)N(C)[C@@H](CC(C)C)C(=O)N[C@@H]([C@@H](C)O)C1=O [AP124] ([Sar][NMeF]V[NMeL]T[NBuGly][NMeF][NMeL]S(Propyl(2,2-Me2,3-OH))[NMeL]D-Piperidide; lactam N-11) | 1.6 ×10⁻⁶ cm/s | 
CCCCN1CC(=O)N(C)[C@@H](Cc2ccccc2)C(=O)N[C@@H](COCC(=O)NC)C(=O)N(C)[C@@H](CC(C)C)C(=O)N[C@@H]([C@@H](C)O)C(=O)N(CCC)CC(=O)N(C)[C@@H](Cc2ccccc2)C(=O)N(C)[C@@H](CC(C)C)C(=O)N[C@@H](CC(C)C)C(=O)N(C)[C@@H](CC(C)C)C(=O)N[C@H](C(=O)N2CCCCC2)CC1=O [Compound I05] ([NBuGly][NMeF]S(CH2CONHMe)[NMeL]T[NPrGly][NMeF][NMeL]L[NMeL]D-Piperidide; lactam N-11) |  | Papp [1]: 0.8 ×10⁻⁶ cm/s
CCCCN1CC(=O)N(C)[C@@H](CC(C)C)C(=O)N[C@@H](COC(C)(C)C)C(=O)N(C)[C@@H]([C@@H](C)CC)C(=O)N(C)[C@@H](CC(C)C)C(=O)N[C@H](C(=O)N2CCCCC2)CC(=O)N[C@H](C)C(=O)N(C)[C@@H](Cc2ccccc2)C(=O)N[C@@H](Cc2ccc(C(=O)NC)c(OC)c2)C(=O)N(C)[C@@H](CC(C)C)C(=O)N[C@@H]([C@@H](C)O)C1=O [AP29] ([dA][NMeF][Phe(3-OMe,4-CONHMe)][NMeL]T[NBuGly][NMeL]S(tBu)[NMeI][NMeL]D-Piperidide; lactam N-11) | 0.36 ×10⁻⁶ cm/s | 
CCCCN1CC(=O)N(C)[C@@H](CC(C)C)C(=O)N[C@H](C(=O)N2CCCCC2)CC(=O)N(C)[C@@H](C)C(=O)N[C@@H](COC[C@@H](C)O)C(=O)N(C)[C@@H](CC(C)C)C(=O)N(C)[C@@H](Cc2cccc(Cl)c2)C(=O)N[C@@H](CC(C)C)C(=O)N(C)[C@@H](Cc2ccccc2)C(=O)N(C)[C@@H]([C@@H](C)CC)C(=O)N[C@@H]([C@@H](C)O)C1=O [AP75] ([NMeA]S(Propyl(2R-OH))[NMeL][NMePhe(3-Cl)]L[NMeF][NMeI]T[NBuGly][NMeL]D-Piperidide; lactam N-11) | 1.1 ×10⁻⁶ cm/s | 
CC[C@H](C)[C@@H]1NC(=O)[C@H](Cc2ccccc2)N(C)C(=O)[C@H](C)N(C)C(=O)C[C@@H](C(=O)N(C)[C@@H](Cc2ccccc2)C(=O)N(C)[C@@H](Cc2ccccc2)C(=O)N[C@@H](C)C(=O)N2CCCCC2)NC(=O)[C@H](CC(C)C)N(C)C(=O)[C@H](Cc2ccccc2)N(C)C(=O)[C@H]([C@@H](C)O)NC(=O)[C@H](CC(C)C)N(C)C(=O)[C@H](CC(C)C)N(C)C(=O)[C@H](C)N(C)C1=O [pd240] ([NMeA][NMeF]I[NMeA][NMeL][NMeL]T[NMeF][NMeL]D[NMeF][NMeF]A-Piperidide; lactam N-10) |  | Papp (Caco-2, Caco-2 (cm/sec) Papp): 0.06 ×10⁻⁶ cm/s
CC[C@H](C)[C@@H]1NC(=O)[C@H](CC(C)C)N(C)C(=O)CCCN(C)C(=O)C[C@@H](C(=O)N2CCCCC2)NC(=O)[C@H](CC(C)C)N(C)C(=O)[C@H](CC(C)C)N(C)C(=O)[C@H]([C@@H](C)O)NC(=O)[C@H](CC(C)C)N(C)C(=O)[C@H](COCCCO)NC(=O)[C@H](Cc2cccc(Cl)c2)N(C)C(=O)[C@H](Cc2ccccc2)N(C)C1=O [AP92] ([NMeGABA][NMeL]I[NMeF][NMePhe(3-Cl)]S(Propyl(3-OH))[NMeL]T[NMeL][NMeL]D-Piperidide; lactam N-11) | 0.18 ×10⁻⁶ cm/s | 
CCCCN1CC(=O)N(C)[C@@H](CC(C)C)C(=O)N[C@H](C(=O)N2CCCCC2)CC(=O)N(C)[C@@H](C)C(=O)N[C@@H](COCC[C@@H](C)O)C(=O)N(C)[C@@H](CC(C)C)C(=O)N(C)[C@@H](Cc2cccc(Cl)c2)C(=O)N[C@@H](CC(C)C)C(=O)N(C)[C@@H](Cc2ccccc2)C(=O)N(C)[C@@H](C(C)C)C(=O)N[C@@H]([C@@H](C)O)C1=O [AP112] ([NMeA]S(Butyl(3R-OH))[NMeL][NMePhe(3-Cl)]L[NMeF][NMeV]T[NBuGly][NMeL]D-Piperidide; lactam N-11) | 0.73 ×10⁻⁶ cm/s | 
CCCN1CC(=O)N(C)[C@@H](CC(C)C)C(=O)N[C@@H](COCCC(C)C)C(=O)N(C)[C@@H](Cc2ccccc2)C(=O)N(C)[C@@H](CC(C)C)C(=O)N[C@H](C(=O)N2CCCCC2)CC(=O)N[C@H](C(C)C)C(=O)N(C)[C@@H](CCc2ccccc2)C(=O)N[C@@H](COCCO)C(=O)N(C)[C@@H](CC(C)C)C(=O)N[C@@H]([C@@H](C)O)C1=O [Compound A01] ([dV][NMehPhe]S(Ethyl(2-OH))[NMeL]T[NPrGly][NMeL]S(Isopentyl)[NMeF][NMeL]D-Piperidide; lactam N-11) | 0.6 ×10⁻⁶ cm/s | 
CC[C@H](C)[C@H]1C(=O)N[C@@H](Cc2ccc(O)cc2)C(=O)N(C)CC(=O)N(C)[C@@H](CC(C)C)C(=O)N[C@H](C(=O)N2CCCCC2)CC(=O)N(C)[C@@H](C)C(=O)N[C@@H](C(C)C)C(=O)N(C)[C@@H](CC(C)C)C(=O)N(C)[C@@H](CC(C)C)C(=O)N[C@@H](C)C(=O)N(C)[C@@H](Cc2ccccc2)C(=O)N1C [pd126] ([NMeA]V[NMeL][NMeL]A[NMeF][NMeI]Y[Sar][NMeL]D-Piperidide; lactam N-11) | 0.42 ×10⁻⁶ cm/s | 
CCCCN1CC(=O)N(C)[C@@H](Cc2ccccc2)C(=O)NC[C@@H](COCCO)C(=O)N(C)[C@@H](CC(C)C)C(=O)N[C@@H]([C@@H](C)O)C(=O)N(CCC)CC(=O)N(C)[C@@H](Cc2ccccc2)C(=O)N(C)[C@@H](CC(C)C)C(=O)N[C@@H](CC(C)C)C(=O)N(C)[C@@H](CC(C)C)C(=O)N[C@H](C(=O)N2CCCCC2)CC1=O [AP133] ([NBuGly][NMeF][X9][NMeL]T[NPrGly][NMeF][NMeL]L[NMeL]D-Piperidide; lactam N-11) | 1.8 ×10⁻⁶ cm/s | 
CCCCN1CC(=O)N(C)[C@@H](Cc2ccccc2)C(=O)N[C@@H](CCC(=O)NC)C(=O)N(C)[C@@H](CC(C)C)C(=O)N[C@@H]([C@@H](C)O)C(=O)N(CCCC)CC(=O)N(C)[C@@H](Cc2ccccc2)C(=O)N(C)[C@@H](CC(C)C)C(=O)N[C@@H](CC(C)C)C(=O)N(C)[C@@H]([C@@H](C)CC)C(=O)N[C@H](C(=O)N2CCCCC2)CC1=O [Compound J05] ([NBuGly][NMeF]E(NHMe)[NMeL]T[NBuGly][NMeF][NMeL]L[NMeI]D-Piperidide; lactam N-11) |  | Papp [1]: 0.052 ×10⁻⁶ cm/s
